In patent US9023813B2 (Nutek Pharma Ltd., priority 2012, dated 2015):

What was measured:
[1] = Solubility determination in D2O by 1H NMR with DSS internal standard
Procedure: Thus the soapy-like solutions obtained were diluted until opalescent and diluted further until the opalescence visually disappeared.

male Sprague Dawley rats = assay: Clinical observations of rats during administration of propofol analogs in the pharmacokinetics study
Procedure: (§1) Blood samples were to be taken pre-dose, during dose and post dose at designated intervals, with the blood quickly processed and stored at −70° C. until analysis.
(§2) Formulations were prepared on the morning of the dosing day and each was passed through a 0.22 μm filter prior to being administered to animals. A standard dose of 0.168 mmol/Kg per analog was administered to each of the rats. […] Analog stability in the formulations was verified by preparing each formulation and harvesting 200 μL aliquots at 0, 1, 2 and 8 hr while standing at room temperature. After harvesting, each sample was immediately frozen in dry ice until analysis; concentrations of test compounds in the samples were examined by HPLC-UV.
(§3) The animals were surgically prepared with indwelling cannula, double cannulation in carotid artery and jugular vein for i.v. infusion. The anesthetic pentobarbital was used during the surgery, and the animals were allowed to recover 3-5 days after surgery before the formulation was dosed. The dose formulation was administered intravenously via the jugular vein cannula. The 16.8 μmol/mL formulation was administered i.v. at a rate of 1 mL/Kg/min for 10 min.

[2] = Pharmacokinetics: plasma concentrations of prodrug and propofol after intravenous infusion (LC/MS/MS); settings: for AUClast: to last detected concentration; for Mean Concentration of Propofol in Rat Plasma After Intravenous Administration: analyte = propofol released from the administered compound; for Pro-drug behaviour (release of propofol in vivo): rats, releasing the propofol in a matter of minutes after infusion
Procedure: as §1, §2, §3
Approximately 0.20 mL blood was collected at each designated time point from carotid artery via a catheter. A total of 12 plasma samples were taken from each animal: 1 pre-dose; 2 during the dose (5 into the 10 min infusion and one just prior termination of the 10 min infusion) and 9 post-infusion at 2, 5, 15, 30 min and 1, 2, 3, 4, and 6 hr post-dose. All blood samples were transferred into plastic microcentrifuge tubes containing 5 μL of K2-EDTA (0.5M) as anti-coagulant and placed on ice until processed for plasma. Blood samples were processed for plasma by centrifugation at approximately 5° C. Plasma samples were then stored in 1.5 mL tubes, quick frozen over dry ice and kept at −70±10° C. until LC/MSMS analysis.
For each, a minimum of 6 standard point curve runs in duplicates, and minimum of 5 standards were back calculated to within ±20% of their nominal concentrations. The LLOQ of each test article in plasma was established and 6 QC samples were included in assay runs of samples to ensure assay performance.
Data Analysis. Plasma concentration versus time data was analyzed by non-compartmental approaches using the WinNonlin software program (version 5.2, Pharsight, Mountain View, Calif.) and the pharmacokinetic parameters T½, CL, Vss, AUC(0-t), AUC(0-inf), MRT, and graphs of plasma concentration versus time calculated for each.

[3] = cited from earlier work
[4] = time post-10 min i.v. infusion, 0.168 mmol/Kg
[5] = analyte = administered compound, Time (h) 0
[6] = analyte = administered compound, Time (h) 0.083
[7] = analyte = administered compound, Time (h) 0.167
[8] = analyte = administered compound, Time (h) 0.2
[9] = analyte = administered compound, Time (h) 0.25
[10] = analyte = administered compound, Time (h) 0.417
[11] = analyte = administered compound, Time (h) 0.667
[12] = analyte = administered compound, Time (h) 1.166
[13] = analyte = administered compound, Time (h) 2.166
[14] = analyte = administered compound, Time (h) 3.166
[15] = analyte = administered compound, Time (h) 4.166
[16] = analyte = administered compound, Time (h) 6.166
[17] = analyte = administered compound
[18] = analyte = administered compound, extrapolated to infinity

Structure (SMILES) | Relative solubility [1] | Rats recovered at (male Sprague Dawley rats; [4]) | Mean concentration of prodrug and propofol in rat plasma after intravenous infusion administration [2, 5] | Mean concentration of prodrug and propofol in rat plasma after intravenous infusion administration [2, 6] [nM] | Mean concentration of prodrug and propofol in rat plasma after intravenous infusion administration [2, 7] [nM] | Mean concentration of prodrug and propofol in rat plasma after intravenous infusion administration [2, 8] [nM] | Mean concentration of prodrug and propofol in rat plasma after intravenous infusion administration [2, 9] | Mean concentration of prodrug and propofol in rat plasma after intravenous infusion administration [2, 10] | Mean concentration of prodrug and propofol in rat plasma after intravenous infusion administration [2, 11] | Mean concentration of prodrug and propofol in rat plasma after intravenous infusion administration [2, 12] | Mean concentration of prodrug and propofol in rat plasma after intravenous infusion administration [2, 13] | Mean concentration of prodrug and propofol in rat plasma after intravenous infusion administration [2, 14] | Mean concentration of prodrug and propofol in rat plasma after intravenous infusion administration [2, 15] | Mean concentration of prodrug and propofol in rat plasma after intravenous infusion administration [2, 16] | AUClast [2, 17] [µM·h] | Mean Concentration of Propofol in Rat Plasma After Intravenous Administration ([2]; Time (h) 0) | Pro-drug behaviour (release of propofol in vivo) [2] | other results
CC(C)c1cccc(C(C)C)c1OC(=O)OCCO[C@H]1O[C@H](CO)[C@@H](O)[C@H](O)[C@H]1O [Compound 32] | 12.0 | recovered at about 26 min | BQL | 4.88 | 4.97 | 2.68 | BQL | BQL | BQL | BQL | BQL | BQL | BQL | BQL | 0.000657 | BQL | very efficient pro-drugs | –
CC(C)c1cccc(C(C)C)c1OC(=O)OCCCO[C@H]1O[C@H](CO)[C@@H](O)[C@H](O)[C@H]1O [Compound 33] | 5.2 (8.1)^4 | recovered at about 30 min | BQL | 16.5 | 23.1 | 9.59 | BQL | BQL | BQL | BQL | BQL | BQL | BQL | BQL | 0.00304 | BQL | very efficient pro-drugs | Mean Concentration of Propofol in Rat Plasma After Intravenous Administration ([2]; Time (h) 4.166): BQL; Mean Concentration of Propofol in Rat Plasma After Intravenous Administration ([2]; Time (h) 6.166): BQL
CC(C)c1cccc(C(C)C)c1O [Propofol, 2,6-diisopropylphenol, reference compound] | – | – | – | 21795 | 31510 | 19613 | 13370 nM | 3827 nM | 3122 nM | 1642 nM | 841 nM | 332 nM | 259 nM | 230 nM | 10.576 | BQL | – | Rats soporous at (male Sprague Dawley rats; [4]): Rats soporous at about 4 min and; Rats recovered at (male Sprague Dawley rats; time post-10 min infusion, 5% cremophor vehicle): recovered at about 1.5 hr; Onset ([3]; anesthetic onset): < 30 s; Duration of action ([3]; in vivo): ~5 min; Pain on administration (share of uses) ([3]; standard lipid formulation): 80%; AUCinf [2, 18]: 12.634 µM·h; MRTinf [2, 18]: 3.48 h; CLp ([2]; analyte = administered compound, total body clearance, dose/AUCinf): 264.7 mL/min/kg; Vdss ([2]; analyte = administered compound, volume of distribution): 61.2 L/kg
